Drawing on US11834450B2, “Compounds having ((3-nitrophenyl)sulfonyl)acetamide as BCL-2 inhibitors” (Eil Therapeutics, Inc., priority 2021, dated 2023), this text covers CC50, EC50 and IC50 for twelve molecules.

pEC50, pIC50: −log10 of the molar value.

Data set [1] in a line: Cell viability assay HEK293 (CellTiter-Glo). It is filed as cell-based. Conditions: human, HEK293 cells, read-out: HEK293 (CC50 code). The procedure: (§1) Assay Condition: Used culture medium for HEK293-DMEM (PanEco, Cat #C420), for the rest of the cell lines—culture medium RPMI-1640 (PanEco, Cat #C363).
(§2) Assay Procedure: Compounds were prepared as 200× stocks with serial dilution in 100% DMSO with a final concentration of 1×. Dispersed 40 μl in 384-well plates at a concentration of 2000 cells per well for HEK293 and at a concentration of 4000 cells per well for the rest of the cell lines using a robotic station Biomek (Beckman). Before adding compounds, the cells were incubated at 37° C. (HEK293 were incubated for a day before adding compounds).
(§3) A dilution plate was prepared by pouring 78 μl of the appropriate culture medium using a robotic station Biomek (Beckman). Sequentially, using a robotic station, 2 μl of substances were taken and added to 78 μl of culture medium (dilution of compounds 40×). Took from there 10 μl and added to the plates to the cells (dilution of compounds 5×). The plates were incubated for 3 days at a temperature 37° C. After 3 days, 10 μl of CellTiter-Glo (Promega) was added to the cells and the luminescence was measured.
(In general: ATP-based viability assays read luminescence as a measure of living cells.)

A further data set relates to MOLT-4 cells. Kind of data set: Cell viability assay MOLT-4 (CellTiter-Glo). The data set is classed as cell-based. Conditions: Homo sapiens, 72 h; MOLT-4 cells, 3 days, CellTiter-Glo; read-out: MOLT-4 (CC50 code). How it is done:
as §1, §2, §3

The subject of data set [2] is caspase-3 and -7 activities in RS4-11 cells. As to the kind of experiment: Cas-3/7 activation (Caspase-Glo 3/7) in RS4-11 cells. The data set is classed as cell-based. Conditions: Homo sapiens, 3.5 h at 37° C. and 30 min at r.t., read-out: Cas-3/7 (EC50 code). How it is done:
Assay Principle: The Caspase-Glo 3/7 Assay is homogeneous, luminescent assay that measures caspase-3 and -7 activities. The assay provides a luminogenic caspase-3/7 substrate, which contains the tetrapeptide sequence DEVD, in a reagent optimized for caspase activity.
Assay Procedure: Incubate RS4-11 cells with varying concentrations of test compounds for 3.5 h in a humidified incubator at 37° C. and 5% CO2 and 30 min at r.t. Add 15 μl Caspase-Glo reagent to each well and incubate the plate for 30 min at r.t. Read on ClarioStar Plus instrument.
Materials: Promega Caspase-Glo (Promega, #8212); Frozen RS4-11 cells; 384-well white plate (Corning, #3570).
Instrumentation: ClarioStar Plus; Biomek FX for liquid handling (Beckman Coulter).

A further data set deals with RS4-11 cells. Kind of data set: Cell viability assay RS4-11 (CellTiter-Glo). It is filed as cell-based. Particulars: Homo sapiens, 72 h; RS4-11 cells, 3 days, CellTiter-Glo; read-out: RS4-11 (CC50 code). How it is done: as §1, §2, §3
In another data set the target is T1, BCL-XL (Homo sapiens, UniProt Q07817).
T1 construct: purchased BPS Bioscience #50223
T1 sequence (Q07817 whole entry): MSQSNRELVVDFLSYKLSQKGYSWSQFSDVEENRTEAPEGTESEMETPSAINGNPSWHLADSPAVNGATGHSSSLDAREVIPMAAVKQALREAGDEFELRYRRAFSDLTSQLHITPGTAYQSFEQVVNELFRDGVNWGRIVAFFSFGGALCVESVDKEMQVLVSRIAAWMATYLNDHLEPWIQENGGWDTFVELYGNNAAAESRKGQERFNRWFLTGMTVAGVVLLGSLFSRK
As to the kind of experiment: BCL-XL TR-FRET Assay (primary PPI inhibition). Conditions: 60 min incubation; read-out: BCLxL (IC50 code, BCL-XL TR-FRET). The data set is classed as binding. How it is done: BCL-XL TR-FRET Assay (BPS Bioscience, #50223) Assay Condition: The following assay concentrations and times were used: 10.5 ng BCL-XL, 5 ul of 1:100 anti-His Tb-labeled donor, 5 ul of 1:100 Dye-labeled acceptor, 5 ul of 1:80 BCL-XL Peptide Ligand, and 2 ul of test compound, with 60 min incubation time. The results of the assay were read using a Clariostar (BMG Labtech) plate reader with the following parameters: TR FRET, 340 ex/620 and 665 em; 60 μsec Delay; and 500 μsec integration.

The target in another data set is T2, BCL-2 (Homo sapiens, UniProt P10415).
T2 construct: purchased BPS Bioscience #50222
T2 sequence (P10415 whole entry): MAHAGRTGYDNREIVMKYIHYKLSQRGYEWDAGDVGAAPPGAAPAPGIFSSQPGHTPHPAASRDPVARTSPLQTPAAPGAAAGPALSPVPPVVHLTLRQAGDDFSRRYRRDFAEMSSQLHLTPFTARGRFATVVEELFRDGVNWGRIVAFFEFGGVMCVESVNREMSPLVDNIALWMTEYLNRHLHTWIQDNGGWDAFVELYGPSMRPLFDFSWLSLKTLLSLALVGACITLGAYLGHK
Kind of data set: BCL-2 TR-FRET Assay (primary PPI inhibition). The data set is classed as binding. Particulars: 60 min incubation; read-out: BCL2 (IC50 code, BCL-2 TR-FRET).

As to `O=C(NS(=O)(=O)c1ccc(NCC2CCOCC2)c([N+](=O)[O-])c1)c1ccc(N2CCC(CN3C(=O)C4(CCCC4)C3c3ccccc3)CC2)cc1Oc1cnc2[nH]ccc2c1` (stereo not shown) [Compound 2, N-[3-nitro-4-(tetrahydropyran-4-ylmethylamino)phenyl]sulfonyl-4-[4-[(3-oxo-1-phenyl-2-azaspiro[3.4]octan-2-yl)methyl]-1-piperidyl]-2-(1H-pyrrolo[2,3-b]pyridin-5-yloxy)benzamide], the CC50 (in general, the concentration at which the toxic effect on the cells reaches its halfway point) at 3 days in data set [1] is greater than 25 µM. Besides, the CC50 with MOLT-4 cells was greater than 10 µM; with RS4-11 cells, greater than 200 nM. Moreover, in data set [2], the pEC50 is less than 6.60. Also, the pIC50 (commonly −log10 of the IC50, conventionally taken in molar units) was less than 5.40 on BCL-XL and less than 7.30 at BCL-2.
As to `Cc1cc(Cl)ccc1C1N(CC2CCN(c3ccc(C(=O)NS(=O)(=O)c4ccc(NCC5CCOCC5)c([N+](=O)[O-])c4)c(Oc4cnc5[nH]ccc5c4)c3)CC2)C(=O)C12CCCC2` (stereo not shown) [Compound 3, 4-[4-[[1-(4-chloro-2-methyl-phenyl)-3-oxo-2-azaspiro[3.4]octan-2-yl]methyl]-1-piperidyl]-N-[3-nitro-4-(tetrahydropyran-4-ylmethylamino)phenyl]sulfonyl-2-(1H-pyrrolo[2,3-b]pyridin-5-yloxy)benzamide], the CC50 at 3 days in data set [1] is greater than 25 µM. For the same molecule, the CC50 was 2 to 10 µM in the data set with MOLT-4 cells and greater than 200 nM in the data set with RS4-11 cells. Also, the pEC50 in data set [2] was less than 6.60. For the same molecule, the figures for the pIC50 on BCL-XL and on BCL-2 were 5.40 to 5.70 and 7.30 to 8.00, respectively.
For the molecule `CC(C)C(=O)N1C[C@H](CN2CCN(c3ccc(C(=O)NS(=O)(=O)c4ccc(NCC5CCOCC5)c([N+](=O)[O-])c4)c(Oc4cnc5[nH]ccc5c4)c3)CC2)[C@@H](c2ccc(Cl)cc2)C1` [Compound 30, 4-[4-[[(3S,4S)-4-(4-chlorophenyl)-1-(2-methylpropanoyl)pyrrolidin-3-yl]methyl]piperazin-1-yl]-N-[3-nitro-4-(tetrahydropyran-4-ylmethylamino)phenyl]sulfonyl-2-(1H-pyrrolo[2,3-b]pyridin-5-yloxy)benzamide], the CC50 at 3 days in data set [1] was greater than 25 µM. The figures for the CC50 in the data set with MOLT-4 cells and in the data set on RS4-11 cells were 2 to 10 µM and greater than 200 nM, respectively. The pEC50 in data set [2] was less than 6.60.
Turning to `CC1=CC[C@H](CN2CCN(c3ccc(C(=O)NS(=O)(=O)c4ccc(NCC5CCOCC5)c([N+](=O)[O-])c4)c(Oc4cnc5[nH]ccc5c4)c3)CC2)[C@@H](c2ccc(Cl)cc2)C1` [Compound 31, 4-[4-[[(1S,6S)-6-(4-chlorophenyl)-4-methyl-cyclohex-3-en-1-yl]methyl]piperazin-1-yl]-N-[3-nitro-4-(tetrahydropyran-4-ylmethylamino)phenyl]sulfonyl-2-(1H-pyrrolo[2,3-b]pyridin-5-yloxy)benzamide], the CC50 at 3 days in data set [1] lay in the range of 10 to 25 µM. The CC50 in the data set with MOLT-4 cells lay in the range of 2 to 10 µM; in the data set on RS4-11 cells it was 100 to 200 nM. The pEC50 in data set [2] is 6.60 to 7.00.
With `CC(C)C(=O)N1Cc2ccccc2C[C@@H]1CN1CCN(c2ccc(C(=O)NS(=O)(=O)c3ccc(NCC4CCOCC4)c([N+](=O)[O-])c3)c(Oc3cnc4[nH]ccc4c3)c2)CC1` [Compound 37, 4-[4-[[(3R)-2-(2-methylpropanoyl)-3,4-dihydro-1H-isoquinolin-3-yl]methyl]piperazin-1-yl]-N-[3-nitro-4-(tetrahydropyran-4-ylmethylamino)phenyl]sulfonyl-2-(1H-pyrrolo[2,3-b]pyridin-5-yloxy)benzamide], in data set [2], the pEC50 was less than 6.60. The pIC50 on BCL-XL is less than 5.40; at BCL-2, less than 7.30.
For the molecule `CC1(C)Cc2ccccc2CN1CC1CCN(c2ccc(C(=O)NS(=O)(=O)c3ccc(NCC4CCOCC4)c([N+](=O)[O-])c3)c(Oc3cnc4[nH]ccc4c3)c2)CC1` [Compound 38, 4-[4-[(3,3-dimethyl-1,4-dihydroisoquinolin-2-yl)methyl]-1-piperidyl]-N-[3-nitro-4-(tetrahydropyran-4-ylmethylamino)phenyl]sulfonyl-2-(1H-pyrrolo[2,3-b]pyridin-5-yloxy)benzamide], in data set [2], the pEC50 is less than 6.60. Moreover, the values for the pIC50 at BCL-XL and on BCL-2 were less than 5.40 and less than 7.30, respectively.
`O=C(NS(=O)(=O)c1ccc(NCC2CCOCC2)c([N+](=O)[O-])c1)c1ccc(N2CCN(C[C@@H]3Cc4cc(Cl)ccc4CN3C(=O)C3CC3)CC2)cc1Oc1cnc2[nH]ccc2c1` [Compound 42, 4-[4-[[(3S)-6-chloro-2-(cyclopropanecarbonyl)-3,4-dihydro-1H-isoquinolin-3-yl]methyl]piperazin-1-yl]-N-[3-nitro-4-(tetrahydropyran-4-ylmethylamino)phenyl]sulfonyl-2-(1H-pyrrolo[2,3-b]pyridin-5-yloxy)benzamide]: the CC50 at 3 days in data set [1] is greater than 25 µM. Moreover, the CC50 in the data set on MOLT-4 cells is 2 to 10 µM; with RS4-11 cells it was greater than 200 nM. The pEC50 in data set [2] is less than 6.60.
Consider `O=C(NS(=O)(=O)c1ccc(NCC2CCOCC2)c([N+](=O)[O-])c1)c1ccc(N2CCC(CN3CCCCCC3c3ccc(Cl)cc3)CC2)cc1Oc1cnc2[nH]ccc2c1` (stereo not shown) [Compound 44, 4-[4-[[2-(4-chlorophenyl)azepan-1-yl]methyl]-1-piperidyl]-N-[3-nitro-4-(tetrahydropyran-4-ylmethylamino)phenyl]sulfonyl-2-(1H-pyrrolo[2,3-b]pyridin-5-yloxy)benzamide], for which, in data set [1], the CC50 at 3 days is greater than 25 µM. The CC50 is 2 to 10 µM in the data set with MOLT-4 cells and greater than 200 nM with RS4-11 cells. Further, the pEC50 in data set [2] is less than 6.60. Moreover, the pIC50 on BCL-2 was less than 7.30.
For the molecule `O=C(NS(=O)(=O)c1ccc(NCC2CCOCC2)c([N+](=O)[O-])c1)c1ccc(N2CCC(CN3CCCCC3c3ccc(Cl)cc3)CC2)cc1Oc1cnc2[nH]ccc2c1` (stereo not shown) [Compound 47, 4-[4-[[2-(4-chlorophenyl)-1-piperidyl]methyl]-1-piperidyl]-N-[3-nitro-4-(tetrahydropyran-4-ylmethylamino)phenyl]sulfonyl-2-(1H-pyrrolo[2,3-b]pyridin-5-yloxy)benzamide], the CC50 at 3 days in data set [1] is 10 to 25 µM. In addition, the CC50 in the data set with MOLT-4 cells was 2 to 10 µM; in the data set with RS4-11 cells, greater than 200 nM. Further, the pEC50 in data set [2] is less than 6.60. In addition, the pIC50 at BCL-2 is 7.30 to 8.00.
Take `O=C(NS(=O)(=O)c1ccc(NCC2CCOCC2)c([N+](=O)[O-])c1)c1ccc(N2CCN(CC3CCC=CC3c3ccc(Cl)cc3)CC2)cc1Oc1cnc2[nH]ccc2c1` (stereo not shown) [Compound 67, 4-[4-[[2-(4-chlorophenyl)cyclohex-3-en-1-yl]methyl]piperazin-1-yl]-N-[3-nitro-4-(tetrahydropyran-4-ylmethylamino)phenyl]sulfonyl-2-(1H-pyrrolo[2,3-b]pyridin-5-yloxy)benzamide]: the pEC50 in data set [2] is less than 6.60. Moreover, the pIC50 at BCL-2 is 7.30 to 8.00.
On to `C[C@]1(O)CC[C@H](CN2CCN(c3ccc(C(=O)NS(=O)(=O)c4ccc(NCC5CCOCC5)c([N+](=O)[O-])c4)c(Oc4cnc5[nH]ccc5c4)c3)CC2)[C@@H](c2ccc(Cl)cc2)C1` [Compound 74, 4-[4-[[(1S,2S,4S)-2-(4-chlorophenyl)-4-hydroxy-4-methyl-cyclohexyl]methyl]piperazin-1-yl]-N-[3-nitro-4-(tetrahydropyran-4-ylmethylamino)phenyl]sulfonyl-2-(1H-pyrrolo[2,3-b]pyridin-5-yloxy)benzamide], for which the CC50 at 3 days in data set [1] lay within 10 to 25 µM. Also, the CC50 with MOLT-4 cells is 2 to 10 µM; in the data set on RS4-11 cells, greater than 200 nM. For the same molecule, the pIC50 is 5.40 to 5.70 at BCL-XL and 7.30 to 8.00 on BCL-2.
With `O=C1CC[C@]2(c3ccc(Cl)cc3)C[C@@]2(CN2CCN(c3ccc(C(=O)NS(=O)(=O)c4ccc(NCC5CCOCC5)c([N+](=O)[O-])c4)c(Oc4cnc5[nH]ccc5c4)c3)CC2)C1` [Compound 77, 4-[4-[[(1R,6R)-6-(4-chlorophenyl)-3-oxo-norcaran-1-yl]methyl]piperazin-1-yl]-N-[3-nitro-4-(tetrahydropyran-4-ylmethylamino)phenyl]sulfonyl-2-(1H-pyrrolo[2,3-b]pyridin-5-yloxy)benzamide], in data set [1], the CC50 at 3 days was in the range of 10 to 25 µM. For the same molecule, the figures for the CC50 in the data set with MOLT-4 cells and in the data set with RS4-11 cells were 2 to 10 µM and greater than 200 nM, respectively. Further, the pIC50 was less than 5.40 at BCL-XL and less than 7.30 on BCL-2.
